≈ marks a conversion by molar mass, not a printed value. Like-named read-outs stand apart in the source and are kept apart here.
How the values were obtained:
Type in all cases: cell-based, Candida albicans
[1] = system: C. albicans ATCC 10231 (strain A); experiment: MIC determination by in vitro antifungal assay (CLSI broth dilution); conditions: strain A = C. albicans ATCC 10231, no visible growth, 48 h at 35° C.
Method: (§1) 10 mg/mL stock solutions of compounds 1a-9j were prepared in dimethyl sulfoxide (DMSO) and were stored at −20° C. in the dark. The antifungal agent amphotericin B (AmB) was purchased from VWR (Radnor PA, USA). AmB was dissolved in DMSO at a final concentration of 5 mg/mL and was stored at −20° C., protected from light. Candida albicans American Type Culture Collection (ATCC) 10231 (strain A), C. albicans ATCC 64124 (B), and C. albicans ATCC MYA-2876 (C) were obtained from Utah State University. C. albicans ATCC 90819 (D), C. albicans ATCC MYA-2310 (E), C. albicans ATCC MYA-1237 (F), C. albicans ATCC MYA-1003 (G), Candida glabrata ATCC 2001 (H), Candida krusei ATCC 6258 (I), Candida parapsilosis ATCC 22019 (J), Cryptococcus neoformans ATCC MYA-895 (M), Aspergillus terreus ATCC MYA-3633 (N), and Aspergillus flavus ATCC MYA-3631 (0) were obtained from the American Type Culture Collection (ATCC; Manassas, VA, USA). Aspergillus nidulans ATCC 38163 (P) was obtained from University of Kentucky. Clinically derived Aspergillus fumigatus NRRL 163 (Q), A. fumigatus NRRL 5109 (R), and A. fumigatus NRRL 6113 (S) were obtained from Northern Regional Research Laboratory (NRRL). Candida auris 384 (K), C. auris 390 (L), and fungal strains 381-400 (including 10 C. auris (AR Bank #381-390), 3 Candida duobushaemulonii (AR Bank #391, AR Bank #392, and AR Bank #394), 2 Candida haemulonii (AR Bank #393 and AR Bank #395), 1 Kodameae ohmeri (AR Bank #396), 1 C. krusei (AR Bank #397), 1 Candida lusitaniae (AR Bank #398), and 2 Saccharomyces cerevisiae strains (AR Bank #399 and AR Bank #400)) were part of a larger fungal library from the AR Bank maintained by the Centers for Disease Control and Prevention (CDC; Atlanta, GA, USA). Filamentous fungi and yeasts were cultivated at 35° C. in RPMI 1640 medium (with L-glutamine, without sodium bicarbonate, Sigma-Aldrich, St. Louis, MO) buffered to a pH of 7.0 with 0.165 M morpholinepropanesulfonic acid (MOPS) buffer (Sigma-Aldrich). For cytotoxicity assays, HepG2 and the mouse macrophage cell line J774A.1 were obtained from University of Kentucky. The human embryonic kidney cell line, HEK-293, was bought from the ATCC. Mammalian cells were grown in Dulbecco's Modified Eagle's Medium (DMEM) (from VWR) with 10% fetal bovine serum (FBS) (from VWR) and 1% Pen/Strep (from ATCC). Cell lines were cultured at 37° C. with 5% CO2 and passaged by trypsinization with 0.05% trypsin: 0.53 mM EDTA (from Sigma-Aldrich).
(§2) The MIC values of compounds 1a-9j against yeast cells (strains A-P and 381-400) were determined in 96-well plates as described in the CLSI documents M27-A3 and M38-A2 with minor modifications.^2 A single colony of freshly prepared yeast cells was used to inoculate 5 mL of yeast extract peptone dextrose (YPD) broth prior to incubation overnight with shaking at 200 rpm at 35° C. From the actively growing yeast culture, 100 µL were then transferred to 900 μL of RPMI 1640 medium and re-adjusted to achieve OD600 of 0.12 (˜1×10^6 CFU/mL). The cell suspension was further diluted to achieve 1:100 in RPMI 1640 medium. 100 μL of cells were added to the wells of a 96-well microtiter plates that contained 100 µL of the compound solution to obtain concentrations of 0.06-31.3 μg/mL of compounds 1a-9j or AmB prior to incubation for 48 h at 35° C. […]

[2] = system: C. albicans ATCC MYA-1237 (F); experiment: MIC determination by in vitro antifungal assay; conditions: strain F = C. albicans ATCC MYA-1237(R)
Method: as §1, §2

[3] = system: C. albicans ATCC MYA-2876 (C); experiment: MIC determination by in vitro antifungal assay; conditions: strain C = C. albicans ATCC MYA-2876(S)
Method: as §1, §2

[4] = system: C. albicans ATCC 90819 (D); experiment: MIC determination by in vitro antifungal assay
Method: as §1, §2

[5] = system: C. albicans ATCC 64124 (B); experiment: MIC determination by in vitro antifungal assay
Method: as §1, §2

[6] = system: C. albicans ATCC MYA-2310 (E); experiment: MIC determination by in vitro antifungal assay; conditions: strain E = C. albicans ATCC MYA-2310
Method: as §1, §2

[7] = system: C. albicans ATCC MYA-1003 (G); experiment: MIC determination by in vitro antifungal assay; conditions: strain G = C. albicans ATCC MYA-1063(R) (footnote), MYA-1003 in text
Method: as §1, §2

[8] = strain D = C. albicans ATCC 90819(R)
[9] = strain B = C. albicans ATCC 64124
[10] = Candida albicans, ATCC10231, 48 h, read-out: MIC
[11] = Candida albicans, read-out: MIC
[12] = Candida albicans, ATCC90819, strain D = C. albicans ATCC 90819(R), read-out: MIC
[13] = Candida albicans, ATCC64124, strain B = C. albicans ATCC 64124, read-out: MIC

Compound	MIC [1] [μg/mL^−1]	MIC [2] [μg/mL^−1]	MIC [3] [μg/mL^−1]	MIC [4, 8] [μg/mL^−1]	MIC [5, 9] [μg/mL^−1]	MIC [6] [μg/mL^−1]	MIC [7] [μg/mL^−1]	MIC [1, 10] [µg/mL]	MIC [2, 11] [µg/mL]	MIC [3, 11] [µg/mL]	MIC [4, 12] [µg/mL]	MIC [5, 13] [µg/mL]	MIC [6, 11] [µg/mL]	MIC [7, 11] [µg/mL]
O=C(NNc1cccc(F)c1)c1ccccn1 [Compound 2a]	≤0.06	0.98	0.98	0.49	0.98	1.95	0.98	–	–	–	–	–	–	–
COc1cccc(NNC(=O)c2ccccn2)c1 [Compound 2c]	0.24	1.95	0.98	1.95	0.98	1.95	0.98	–	–	–	–	–	–	–
O=C(NNc1ccc(F)cc1F)c1ncc(F)cc1F [Compound 7g]	–	–	–	–	–	–	–	0.98 (≈ 3.44 µM)	3.9 (≈ 13.7 µM)	3.9 (≈ 13.7 µM)	3.9 (≈ 13.7 µM)	3.9 (≈ 13.7 µM)	3.9 (≈ 13.7 µM)	1.95 (≈ 6.84 µM)
O=C(NNc1cc(Cl)cc(Cl)c1)c1ccc(F)cc1F [Compound 1j]	–	–	–	–	–	–	–	3.9 (≈ 12.3 µM)	15.6 (≈ 49.2 µM)	> 31.3	> 31.3	> 31.3	> 31.3	7.8 (≈ 24.6 µM)
O=C(NNc1cc(F)cc(F)c1)c1ccccn1 [Compound 2i]	–	–	–	–	–	–	–	≤ 0.06	1.95 (≈ 7.82 µM)	0.98 (≈ 3.93 µM)	0.98 (≈ 3.93 µM)	0.98 (≈ 3.93 µM)	0.98 (≈ 3.93 µM)	0.49 (≈ 1.97 µM)
O=C(NNc1cc(F)cc(F)c1)c1ccc(F)cc1F [Compound 1i]	–	–	–	–	–	–	–	3.9 (≈ 13.7 µM)	7.8 (≈ 27.4 µM)	15.6 (≈ 54.9 µM)	15.6 (≈ 54.9 µM)	15.6 (≈ 54.9 µM)	15.6 (≈ 54.9 µM)	15.6 (≈ 54.9 µM)
O=C(NNc1cccc(F)c1)c1ccc(F)cc1F [Compound 1a]	0.24	0.98	3.9	7.8	1.95	3.9	1.95	–	–	–	–	–	–	–
COc1cccc(NNC(=O)c2ncc(F)cc2F)c1 [Compound 7c]	–	–	–	–	–	–	–	0.98 (≈ 3.51 µM)	3.9 (≈ 14 µM)	3.9 (≈ 14 µM)	7.8 (≈ 27.9 µM)	1.95 (≈ 6.98 µM)	3.9 (≈ 14 µM)	1.95 (≈ 6.98 µM)
O=C(NNc1ccc(Cl)cc1)c1cnccn1 [Compound 9e]	0.98	0.98	3.9	0.98	1.95	1.95	1.95	–	–	–	–	–	–	–
O=C(NNc1ccc(Cl)cc1)c1cccc(F)n1 [Compound 5e]	1.95	0.98	1.95	3.9	1.95	1.95	0.98	–	–	–	–	–	–	–
O=C(NNc1ccc(F)cc1)c1ncc(F)cc1F [Compound 7d]	–	–	–	–	–	–	–	0.98 (≈ 3.67 µM)	1.95 (≈ 7.3 µM)	1.95 (≈ 7.3 µM)	1.95 (≈ 7.3 µM)	1.95 (≈ 7.3 µM)	3.9 (≈ 14.6 µM)	0.98 (≈ 3.67 µM)
O=C(NNc1cccc(F)c1)c1ccc(F)cn1 [Compound 3a]	0.49	3.9	3.9	3.9	0.49	3.9	1.95	–	–	–	–	–	–	–
O=C(NNc1ccc(Cl)cc1)c1ncc(F)cc1F [Compound 7e]	3.9	0.49	3.9	7.8	3.9	1.95	1.95	–	–	–	–	–	–	–
O=C(NNc1cccc(Cl)c1)c1cnccn1 [Compound 9b]	–	–	–	–	–	–	–	0.24 (≈ 0.965 µM)	0.98 (≈ 3.94 µM)	1.95 (≈ 7.84 µM)	3.9 (≈ 15.7 µM)	1.95 (≈ 7.84 µM)	7.8 (≈ 31.4 µM)	0.98 (≈ 3.94 µM)
O=C(NNc1ccc(F)cc1)c1cccc(Br)n1 [Compound 6d]	–	–	–	–	–	–	–	0.98 (≈ 3.16 µM)	3.9 (≈ 12.6 µM)	3.9 (≈ 12.6 µM)	3.9 (≈ 12.6 µM)	1.95 (≈ 6.29 µM)	3.9 (≈ 12.6 µM)	1.95 (≈ 6.29 µM)
COc1ccc(NNC(=O)c2ccc(F)cc2F)cc1 [Compound 1f]	–	–	–	–	–	–	–	0.98 (≈ 3.52 µM)	1.95 (≈ 7.01 µM)	1.95 (≈ 7.01 µM)	1.95 (≈ 7.01 µM)	1.95 (≈ 7.01 µM)	1.95 (≈ 7.01 µM)	1.95 (≈ 7.01 µM)
COc1cccc(NNC(=O)c2cnccn2)c1 [Compound 9c]	–	–	–	–	–	–	–	0.49 (≈ 2.01 µM)	1.95 (≈ 7.98 µM)	1.95 (≈ 7.98 µM)	1.95 (≈ 7.98 µM)	0.98 (≈ 4.01 µM)	1.95 (≈ 7.98 µM)	0.98 (≈ 4.01 µM)
O=C(NNc1cccc(F)c1)c1ccc(Br)cn1 [Compound 4a]	0.49	3.9	1.95	3.9	0.49	3.9	0.98	–	–	–	–	–	–	–
O=C(NNc1cc(F)ccc1F)c1cnccn1 [Compound 9h]	–	–	–	–	–	–	–	0.24 (≈ 0.959 µM)	3.9 (≈ 15.6 µM)	3.9 (≈ 15.6 µM)	3.9 (≈ 15.6 µM)	7.8 (≈ 31.2 µM)	> 31.3	1.95 (≈ 7.79 µM)
COc1ccc(NNC(=O)c2ccccn2)cc1 [Compound 2f]	–	–	–	–	–	–	–	0.12 (≈ 0.493 µM)	0.98 (≈ 4.03 µM)	1.95 (≈ 8.02 µM)	0.49 (≈ 2.01 µM)	0.98 (≈ 4.03 µM)	0.98 (≈ 4.03 µM)	0.98 (≈ 4.03 µM)
O=C(NNc1ccc(Cl)cc1)c1nc(F)ccc1F [Compound 8e]	3.9	>31.3	3.9	7.8	7.8	3.9	3.9	–	–	–	–	–	–	–
O=C(NNc1ccc(F)cc1F)c1cnccn1 [Compound 9g]	–	–	–	–	–	–	–	0.24 (≈ 0.959 µM)	0.49 (≈ 1.96 µM)	0.98 (≈ 3.92 µM)	0.98 (≈ 3.92 µM)	0.98 (≈ 3.92 µM)	3.9 (≈ 15.6 µM)	0.49 (≈ 1.96 µM)
COc1ccc(NNC(=O)c2cnccn2)cc1 [Compound 9f]	–	–	–	–	–	–	–	0.49 (≈ 2.01 µM)	0.98 (≈ 4.01 µM)	1.95 (≈ 7.98 µM)	0.98 (≈ 4.01 µM)	0.98 (≈ 4.01 µM)	1.95 (≈ 7.98 µM)	1.95 (≈ 7.98 µM)

— US20240425464A1, “Substituted Monohydrazides as Potent Antifungal Agents” (University of Kentucky Research Foundation, priority 2023, published 2024)
